{
  "source": "patent US12171901B2",
  "about": "“Powdered collagen wound care compositions” (priority 2021, dated 2024)",
  "system": "skin of female albino New Zealand White rabbits",
  "assay": "Rabbit skin irritation",
  "protocol": "Within 24 hours to 4 hours before test application, the backs of female albino New Zealand White rabbits were clipped free of hair, exposing 2 test and 2 control areas on each side of the spine with a size of approximately 15 cm×15 cm. The two test sites are located on the left cranial section and the right caudal section of the dorsal region. The two control sites are located on the left caudal and right cranial section of the dorsal region. FIG. 2 depicts the arrangement of test and control sites. The exposed skin is wiped with alcohol and dried. Rabbits of acceptable skin quality were selected and used for testing.\nA 25×25 mm gauze patch saturated with 0.5 mL of 0.9% NaCl is used for the control and applied to the clipped control sites. The patches are secured using hypoallergenic, waterproof, surgical tape over the test and control sites. The animal's trunk is securely wrapped so as to maintain the position of the patches. Patches are left applied for a minimum of four hours.\nAfter patch removal, the test and control sites were then scored for erythema and edema at 1, 24, 48 and 72 hours after patch removal. Only the 24, 48, and 72 hour observations were scored and used for calculations. If no response was expected, testing was conducted using three animals per test article. If irritation was anticipated, one animal was tested initially. If the first animal received a score of 2 or less for either erythema or edema, 2 additional rabbits were used to conclude the test.\nThis total was divided by the total number of observations. The same was done for the control sites. […] These scores for each animal were added and divided by the total number of animals to give the Primary Irritation Index. […] For any response, the Maximum Irritation Response, the time of onset of the response and the time of maximum response was recorded.\nTo positively validate the test, 10% sodium dodecyl sulfate (SDS), which is a known dermal irritant, in petroleum jelly was applied to a 2.5 cm×2.5 cm gauze patch. As a negative control, 0.5 mL of 0.9% NaCl was applied to a 2.5 cm×2.5 cm gauze patch. A Primary Irritation Index in the moderate to severe range is considered a positive result. The test system and methods utilized were the same as described above.",
  "key": {"[1]": {"settings": "per rabbit, 24, 48 and 72 hour observations after patch removal, direct application, sulfate"}},
  "note": "Values joined by “and” are separate entries in the source; they are usually repeats but may differ in a detail not shown here. Equal entries are not always repeated.",
  "data": [
    {"smiles": "CCCCCCCCCCCCOS(=O)(=O)[O-].[Na+]", "note": "[10% SDS, sodium dodecyl sulfate]", "values": [
      {"measurement": "Primary Irritation Index", "setting": "3 animals", "value": 6.4},
      {"measurement": "Total Average (sum over animals)", "setting": "3 animals", "value": 19.3},
      {"measurement": "ED (edema) score sum", "setting": "[1]", "value": "19 and 21 and 14"},
      {"measurement": "ER (erythema) score sum", "setting": "[1]", "value": "21 and 23 and 18"},
      {"measurement": "ER + ED = Total", "setting": "[1]", "value": "40 and 44 and 32"}
    ]}
  ]
}
